Assay [1] concerns experimental autoimmune encephalomyelitis (EAE). In words: Experimental autoimmune encephalomyelitis (EAE) model of multiple sclerosis. The class given is in vivo, mouse. The method, then: Six groups of B6 mice were immunized with MOG/CFA and injected with pertussis toxin to induce experimental autoimmune encephalomyelitis (EAE), an animal model of Multiple sclerosis. Three groups of mice were treated with vehicle, 4-{3-[1-benzhydryl-5-chloro-2-(2-{[(2,6-dimethylbenzyl)sulfonyl]amino}ethyl)-1H-indol-3-yl]propyl}benzoic acid (Compound A), or 4-{2-[1-benzhydryl-5-chloro-2-(2-{[(3,4-dichlorobenzyl)sulfonyl]amino}-ethyl)-1H-indol-3-yl]ethoxy}benzoic acid (Compound B) from the day of Immunization (orally, 100 mg/kg, twice/day). Another three groups of mice were treated with vehicle, Compound A or Compound B starting on the day of EAE onset (day 15) (orally, 100 mg/kg, twice/day). […] The results are shown in the Table below, wherein mean clinical score is a mean of clinical evaluation of each animal for that particular day.
Animals are Scored as Follows:
• 0—no clinical signs of EAE (no paralysis) • 1—paralysis of tail • 2—paralysis of tail and partial hind leg paralysis • 3—paralysis of tail and complete hind leg paralysis • 4—paralysis of tail, complete hind leg paralysis and a partial front leg paralysis • 5—moribund animal (all four limbs paralyzed, lack of responsiveness, these mice were immediately euthanized).
In addition, the compounds of Examples 14 and 25 were also found to be efficacious in the mouse experimental autoimmune encephalomyelitis (EAE) model of multiple sclerosis. As shown by the data in the Table below, these compounds led to a delayed onset of disease and reduced severity of disease when administered orally in doses as low as 2.5 mg/kg.

Assay [2] deals with primary dopaminergic neurons. Put plainly: MPP+ exposure in dopaminergic neurons. The format is cell-based, rat. The following applies: 10 μM MPP+ 60 minutes, control 100, MPP+ alone 56.6. As for the experimental part:
Primary dopaminergic neurons were isolated from E15 rat embryos as described in Pong K., et al., (1997) J. Neurochem. 69 986-994. Briefly, the ventral mesencephalon was isolated and tissue was pooled in ice-cold phosphate buffer saline (PBS) without Ca^2+ and Mg^2+. The tissue was transferred to an enzymatic dissociation media containing 20 IU/ml papain in Earle's balanced salt solution (Worthington Biochemical, Freehold, N.J.) and incubated for 30 minutes at 37° C. After enzymatic dissociation, the papain solution was aspirated and the tissue mechanically triturated with a fire-polished Pasteur pipette in complete media [Neurobasal Medium with B-27 supplement (Gibco, Grand Island, N.Y.), penicillin/streptomycin, aphidicolin, glutamate] containing 2,000 IU/ml DNase and 10 mg/ml ovomucoid protease inhibitor. Single-cell suspensions in complete media were plated on pre-coated poly-L-ornithine/laminin 24-well plates (Becton-Dickinson, Bedford, Mass.) at a density of 5.0×10^5 cells/well. Cells were maintained for one week prior to experimentation.
Cultures were exposed to 10 μM MPP^+ for 60 minutes. After the exposure, fresh media was exchanged and fresh compound was added. Dopaminergic neuron viability was determined 24 hours later by measuring ^3H-dopamine uptake as described in Pong et al., 1997, supra.

A further assay has as its system CFA-induced hyperalgesia. In words: CFA-induced hyperalgesia model. The following applies: 6 hours after CFA. The format is in vivo, rat. An excerpt: The sensitivity of peripheral sensory neurons can be enhanced such that they respond to both noxious and non-noxious stimuli resulting in chronic pain (See Julius, D. et al., Nature. 2001; 413:203; Woolf, C. J., et al., Science. […]; 288:1765). Prostaglandins and leukotrienes at the site of inflammation and tissue damage are partially responsible for this potentiation of the pain response. Prostaglandins promote the phosphorylation of ion channels, increasing the excitability and lowering the pain threshold of sensory neurons. Analogously, leukotriene B4 and related arachidonate metabolites of 12-LO bind to and activate the capsaicin receptor (or VR1) ion channel on neurons that respond to heat and low pH (See Piomelli D., TRENDS in Pharmacological Sciences, January 2001; 22(1):17-29). The effect of the compound of Example 10 was measured in the CFA-induced hyperalgesia model, and lipid mediator production was measured at peripheral and central sites.
The animals were dosed with vehicle, the compound of Example 10, naproxen or celecoxib, and then CFA was immediately injected into the hind footpad. To assess hyperalgesia, pressure was applied to the left hind paw at a slow and constant rate using a digital force gauge. Measurements were taken at 0 and 6 hours. The application of the force was stopped when the animal vocalized, or struggled. Readings were taken prior to dosing and CFA injection, and repeated six hours after the CFA injection. Two independent experiments were run and the data were analyzed separately.
The paws were collected at the end of each experiment (6 hours) and the levels of PGE2, LTB4 and TXB2 were measured in the exudates.

Turning to `O=C(O)c1ccc(OCCc2c(CCNS(=O)(=O)Cc3ccc(Cl)c(Cl)c3)n(C(c3ccccc3)c3ccccc3)c3ccc(Cl)cc23)cc1` [Compound B, 4-{2-[1-benzhydryl-5-chloro-2-(2-{[(3,4-dichlorobenzyl)sulfonyl]amino}-ethyl)-1H-indol-3-yl]ethoxy}benzoic acid], the mean clinical score stood at 0 in assay [1] (100 mg/kg orally twice/day from EAE onset (day 15), day 11 after immunization); 0 in assay [1] (100 mg/kg orally twice/day from EAE onset (day 15), day 12 after immunization); 0 in assay [1] (100 mg/kg orally twice/day from EAE onset (day 15), day 13 after immunization); 0 in assay [1] (100 mg/kg orally twice/day from EAE onset (day 15), day 14 after immunization); 0.10 in assay [1] (100 mg/kg orally twice/day from EAE onset (day 15), day 15 after immunization); 0.45 in assay [1] (100 mg/kg orally twice/day from EAE onset (day 15), day 16 after immunization). In addition, the mean clinical score in assay [1] (100 mg/kg orally twice/day from EAE onset (day 15), day 17 after immunization) worked out at 0.80; in assay [1] (100 mg/kg orally twice/day from EAE onset (day 15), day 18 after immunization), 1.05; in assay [1] (100 mg/kg orally twice/day from EAE onset (day 15), day 19 after immunization), 1.10; in assay [1] (100 mg/kg orally twice/day from EAE onset (day 15), day 20 after immunization), 1.00; in assay [1] (100 mg/kg orally twice/day from EAE onset (day 15), day 21 after immunization), 1.20; in assay [1] (100 mg/kg orally twice/day from EAE onset (day 15), day 22 after immunization) it was 1.10. Moreover, the mean clinical score in assay [1] (100 mg/kg orally twice/day from EAE onset (day 15), day 23 after immunization) is 1.40; in assay [1] (100 mg/kg orally twice/day from EAE onset (day 15), day 24 after immunization), 1.35; in assay [1] (100 mg/kg orally twice/day from EAE onset (day 15), day 25 after immunization), 1.25; in assay [1] (100 mg/kg orally twice/day from EAE onset (day 15), day 26 after immunization), 1.40; in assay [1] (100 mg/kg orally twice/day from EAE onset (day 15), day 27 after immunization) it was 1.55; in assay [1] (100 mg/kg orally twice/day from day of immunization (Day 1), day 11 after immunization), 0. Also, the mean clinical score was determined as 0 in assay [1] (100 mg/kg orally twice/day from day of immunization (Day 1), day 12 after immunization); 0 in assay [1] (100 mg/kg orally twice/day from day of immunization (Day 1), day 13 after immunization); 0 in assay [1] (100 mg/kg orally twice/day from day of immunization (Day 1), day 14 after immunization); 0 in assay [1] (100 mg/kg orally twice/day from day of immunization (Day 1), day 15 after immunization); 0 in assay [1] (100 mg/kg orally twice/day from day of immunization (Day 1), day 16 after immunization); 0.06 in assay [1] (100 mg/kg orally twice/day from day of immunization (Day 1), day 17 after immunization). Besides, the mean clinical score amounted to 0.06 in assay [1] (100 mg/kg orally twice/day from day of immunization (Day 1), day 18 after immunization); 0.11 in assay [1] (100 mg/kg orally twice/day from day of immunization (Day 1), day 19 after immunization); 0.39 in assay [1] (100 mg/kg orally twice/day from day of immunization (Day 1), day 20 after immunization); 0.44 in assay [1] (100 mg/kg orally twice/day from day of immunization (Day 1), day 21 after immunization); 0.50 in assay [1] (100 mg/kg orally twice/day from day of immunization (Day 1), day 22 after immunization); 0.67 in assay [1] (100 mg/kg orally twice/day from day of immunization (Day 1), day 23 after immunization). The mean clinical score is 0.56 in assay [1] (100 mg/kg orally twice/day from day of immunization (Day 1), day 24 after immunization); 0.56 in assay [1] (100 mg/kg orally twice/day from day of immunization (Day 1), day 25 after immunization); 0.56 in assay [1] (100 mg/kg orally twice/day from day of immunization (Day 1), day 26 after immunization); 0.72 in assay [1] (100 mg/kg orally twice/day from day of immunization (Day 1), day 27 after immunization). Moreover, the “prevention of EAE / reduction of clinical severity” value in assay [1] (administered from the time of immunization, or in mice with or close to EAE) is reported as “can prevent EAE”. The “dopaminergic neuron viability (3H-dopamine uptake), Avg.” value in assay [2] (0.3 μM) is listed as 74; in assay [2] (1 μM), 71.6; in assay [2] (3 μM), 78.6; in assay [2] (10 μM), 83.2.

With `COc1ccc2cc([C@H](C)C(=O)O)ccc2c1` [naproxen, reference compound], in the assay with CFA-induced hyperalgesia, the “LTB4 levels in paw exudates” value is reported as “increased” and the “TXB2 levels in paw exudates” value is “greater than the inhibition with celecoxib”. Also, in the assay on CFA-induced hyperalgesia (Example 10 at 25 mg/kg), the “PGE2 levels in paw exudates” value is on record as “significantly inhibited”.

For the origin of these results see patent publication US8283373B2, “Inhibitors of cytosolic phospholipase A2” (Pfizer Inc., priority 2005, dated 2012).
